Test results published in patent US10603319B2, “Pyrimidine derivatives and their use in treating or preventing a respiratory syncytial virus infection” (REVIRAL LIMITED, priority 2016, dated 2020).
Where “and” joins values, the source holds several entries; their conditions need not be identical. Equal values may be shown once.

Legend:
P-gp (MDR1), human = test: in vitro; type: in vitro ADME; conditions: dog, MDCK-MDR1
Protocol: MDR I-MDCK Permeability: Experimental Procedure
MDR1-MDCK cells obtained from the NIH (Rockville, Md., USA) are used between passage numbers 6-30. Cells are seeded onto Millipore Multiscreen Transwell plates at 3.4×10^5 cells/cm2. The cells are cultured in DMEM and media is changed on day 3. On day 4 the permeability study is performed. Cell culture and assay incubations are carried out at 37° C. in an atmosphere of 5% CO2 with a relative humidity of 95%. On the day of the assay, the monolayers are prepared by rinsing both basolateral and apical surfaces twice with Hanks Balanced Salt Solution (HBSS) at the desired pH warmed to 37° C. Cells are then incubated with HBSS at the desired pH in both apical and basolateral compartments for 40 min to stabilise physiological parameters.
The dosing solutions are prepared by diluting test compound with assay buffer to give a final test compound concentration of 10 μM (final DMSO concentration of 1% v/v). […]
Test compound permeability is assessed in duplicate. […]
Test and control compounds are quantified by LC-MS/MS cassette analysis using an 8-point calibration with appropriate dilution of the samples. The starting concentration (C0) is determined from the dosing solution and the experimental recovery calculated from C0 and both apical and basolateral compartment concentrations. […]

RSV A2 = test: Plaque Reduction Assay 1 (Vero cells, immunostaining); type: cell-based; conditions: two replicate values, read-out: RSV Plaque Reduction assays A2 (PRNT1) (n = 2) IC50
Protocol: Plaque Reduction Assay 1: Vero cells were seeded in 96-well plates in a volume of 100 μL of Optimem supplemented with 3% FCS at a concentration of 4×10^4 cells per well. After an overnight incubation at 37° C. in a humidified 5% CO2 atmosphere, the monolayer of cells should be approximately 90% confluent. Antiviral compounds were titrated in pre-warmed Serum Free (SF) Optimem in a U-bottom 96 well plate. For compounds in a DMSO solution, titration in 100% DMSO was performed first and each concentration added individually to a 2× final concentration at 4% DMSO in SF media before mixing with virus (2% final DMSO with virus). Media was then removed from cells and replaced with PBS (100 μl/well). RSV stock was thawed and diluted in SF Optimem media to 4000 PFU/mLl. An equal volume of virus was added to compounds on the titration plate. PBS was removed from cells which were then inoculated with the virus/compound solution (50 μL/well). Cells were incubated for 2 h in a 37° C.+5% CO2 humidified incubator to allow infection. Inoculum was removed and media (Optimem+1% FCS) added to cells (100 μl/well). Cells were subsequently incubated for 48 h at 37° C.+5% CO2 in a humidified incubator. Immunostaining Procedure: Media was removed from cells and the monolayer washed with PBS. Cells were fixed with ice cold 80% Acetone in PBS (100 μl/well) for 20 mins at −20° C. Fixative was removed and cells are dried for 30 mins with plates inverted. Blocking solution (5% skim milk powder in PBS-T) was added to cells (150 μL/well) and plates were incubated for 30 mins at room temperature. Blocking solution was removed and plates washed once with PBS-T. Primary antibody in blocking solution was added to plates (50 μl/well) and incubated for 1 h at 37° C. Plates were then washed 3 times with PBS-T. Secondary antibody in blocking solution was added to plates ([…]) and incubated for 1 h at 37° C. in the dark. Plates were washed as above and then dried for 10 mins. Plates were scanned on the Odyssey Imager (Li-Cor Biosciences) at a resolution of […], medium quality and level 5 intensity in the […]. Data Analysis: Images obtained were saved and plaque numbers counted with the aid of computer imaging software. EC50 values for compounds were derived from dose response curves [three variable log(inhibitor) vs response] obtained using Graphpad Prism software.

RSV A2 VR-1540 = test: Plaque Reduction Assay 2 (HEp-2 cells, virospot count); type: cell-based; conditions: human respiratory syncytial virus, 24 h; RSV A2, HEp-2 cells, 1 day
Excerpt: Plaque Reduction Assay 2:
This RSV plaque reduction assay is an infectivity assay which allows quantification of the number of infectious units in a distinct foci of RSV infection. This is indicated by zones of viral antigen detected by specific antibody staining within a monolayer of otherwise healthy tissue culture cells. As each plaque originates from a single infectious virus particle an accurate calculation of the anti-viral effect can be obtained by counting plaques in the presence and absence of an anti-viral compound. HEp-2 cells (ATCC, CCL23) were passaged in flasks and seeded in 96-well plates in DMEM containing antibiotics and supplemented with 10% FBS. During inoculation and subsequent incubation, cells were cultured in DMEM containing 3% FBS. 100 plaque forming unit (PFU)/well of RSV (RSV A2 VR-1540) was mixed with ten serial dilutions of compound. Subsequently, 100 μL of the virus/compound mixtures was added to confluent HEp-2 cell monolayers. The cells and virus/compound mixtures were incubated at 35° C. in a humidified 5% CO2 incubator for 1 day.
Cells were washed twice with PBS before adding 50% v/v EtOH/MeOH, and then stored at −20° C. On the day of the staining, fixative was first removed from the plates. Plates were washed 3× with PBS. A pre-titrated amount of the primary antibody was added in 60 μL PBS/2% milk powder, and plates incubated for 1 h at rt. The plates were washed 3× with PBS/0.05% Tween20 before addition of goat anti-mouse horse radish peroxidase in 60 μL PBS/2% milk powder, and incubated for 1 h at rt. Following three wash steps with PBS/0.05% Tween20, 60 μL ready-to-use TrueBlue was added and plates were incubated at rt for 10-15 min before adding MilliQ water. Plates were washed once with water, incubated for 30-60 min and after removal of water, air-dried in the dark.
Plates were scanned and analyzed using the Immunospot S6 UV analyzer, which is equipped with BioSpot analysis software for counting immunostained plaques (virospots). Plaque counts were used to calculate % infection relative to the mean of the spot count (SC) in the virus control wells for RSV. IC50/IC90 values were calculated as 50% or 90% reduction in signal, respectively, by interpolation of inhibition curves fitted with a 4-parameter nonlinear regression with a variable slope in GraphPad 5.0 (Prism).

In the case of `NC1CCN(c2ncc(CN3C(=O)C4(CC4)c4ccc(F)cc43)c(N[C@H]3CC[C@H](O)CC3)n2)C1` (stereo partly shown) [Compound 2, 1′-((2-(3-Aminopyrrolidin-1-yl)-4-(((1r,4r)-4-hydroxycyclohexyl)amino)pyrimidin-5-yl)methyl)-6′-fluorospiro[cyclopropane-1,3′-indolin]-2′-one], the Papp A→B at 60 min, 10 μM (P-gp (MDR1), human) is reported as 0.32 ×10⁻⁶ cm/s, the Papp B→A at 60 min, 10 μM (P-gp (MDR1), human) is reported as 7.99 ×10⁻⁶ cm/s and the IC50 (RSV A2) is reported as 18.9 nM and 4.63 nM. For the same molecule, the IC50 (RSV A2 VR-1540) was 58 nM.
